# Laboratory results taken from patent US10022397B2, “Treatment of rheumatoid arthritis using noble gas mixtures” (Nobilis Therapeutics, Inc., priority 2016, dated 2018).
# System: patients with disease modifying antirheumatic drug (DMARD)-resistant Rheumatoid Arthritis (RA)
# Procedure: 20 patients with disease modifying antirheumatic drug (DMARD)-resistant Rheumatoid Arthritis (RA) are chosen for a clinical trial assessing safety and efficacy of 25% Xenon administration with 75% air. A total of 10 liters of gas inhaled. Administration is performed 3 times per week.
# Safety is determined by assessment of hematological biochemical, and coagulation parameters on baseline, and days 30, 60, and 90. Efficacy is assessed by CRP, ESR, anti-citrulline antibody, RF, Quality of Life Questionnaire, 28-joint disease activity score (DAS28), European League against Rheumatism (EULAR) response criteria and immunological parameters. […]
# Safety will be assessed throughout the study with the use of direct evaluation and patient reporting during study visits or patient-initiated telephone contacts. The types, frequencies, severity, and duration of any reported adverse event or abnormalities in clinical laboratory values, physical examinations, vital signs, or special cardiovascular evaluations will be assessed. […]
# To assess preliminary evidence of efficacy, the following assessments will be analyzed at following time points and compared to baseline values: […]
# Quality of Life Assessment at 1, 2, and 3 Months Measured by: • Change in Rheumatoid Arthritis Quality of Life (RAQoL) questionnaire
smiles,measurement,setting,value
"[Xe] [Xenon, xenon]",clinical and immunological parameters of RA,"25% Xenon with 75% air, 10 liters inhaled, 3 times per week, DAS28, EULAR, RF, ESR, CRP, anti-citrulline antibody, RAQoL at 1, 2 and 3 months vs baseline",reduction of clinical and immunological parameters of RA is noted in a statistically significant manner
same,treatment associated adverse events,"human, in vivo",no significant treatment associated adverse events
